# Assay results reported in patent US9549911B2, “Ginger metabolites and uses thereof” (North Carolina A&T State University, priority 2012, dated 2017).
# Where two headings read alike, the source gives them in different places.
# Assays:
# [1] = test system: human lung cancer cells H-1299; experiment: MTT growth inhibition of human cancer and normal cells (Part 2); type: cell-based; conditions: for activity against cancer cells (MTT): H-1299, 0 to 80 μM; for IC50: H-1299, 48 h, 0 to 80 μM
# Procedure: (§1) Growth inhibition of human cancer and normal cells. Cell growth inhibition was determined by a MTT colorimetric assay. Human colon cancer cells HCT-116, human lung cancer cells H-1299, human colon fibroblast cells CCD-18Co, and human lung fibroblast cells IMR-90 were plated in 96-well microtiter plates with 3000 cells/well and allowed to attach for 24 h at 37° C. […] After the cells were cultured for 48 h, the medium was aspirated and cells were treated with 200 μL fresh medium containing 2.41 mmol/L MTT. […] The reading reflected the number of viable cells and was expressed as a percentage of viable cells in the control. Both HCT-116 and H-1299 cells were cultured in McCoy's 5A medium. CCD-18Co and IMR-90 cells were cultured in Eagle's modified essential medium (EMEM). All of the above media were supplemented with 10% fetal bovine serum, 1% penicillin/streptomycin, and 1% glutamine, and the cells were kept in a 37° C. incubator with 95% humidity and 5% CO2.
# [2] = test system: human colon cancer cells HCT-116; experiment: as above; type: cell-based; conditions: for activity against cancer cells (MTT): HCT-116, 0 to 80 μM; for IC50: HCT-116, 48 h, 0 to 80 μM
# Procedure: as §1
# [3] = test system: human colon cancer cells HT-29; experiment: MTT toxicity in colon cancer and normal colon cells (Part 5); type: cell-based; conditions: HT-29 (p53 mutant), 24 hours
# Procedure: (§2) Cell viability was determined by an MTT colorimetric assay. […] The reading reflected the number of viable cells and was expressed as a percentage of viable cells in the control. CCD-18Co cells were grown in EMEM. Both HCT-116 and HT-29 cells were cultured in McCoy's 5A medium. All of the above media were supplemented with 10% fetal bovine serum, 1% penicillin/streptomycin, and 1% glutamine, and the cells were kept in a 37° C. incubator with 95% humidity and 5% CO2.
# [4] = test system: human colon cancer cells HCT-116; experiment: as above; type: cell-based; conditions: HCT-116, 24 hours
# Procedure: as §2
# HCT-116 cells [5] = experiment: Western blot analysis of apoptosis markers and p53 (Part 5); type: cell-based, human; conditions: HCT-116 (p53 wild-type), 24 hours; M2, 6S 10, 20 or 40 μM; 8S, M2′, 10S, M2″ 20 μM
# Procedure: (§3) Cell lysates were prepared in ice-cold RIPA lysis buffer [25 mM Tris-HCl (pH 7.6), 150 mM NaCl, 1% NP-40, 1% sodium deoxycholate, 0.1% SDS, Thermo Fisher Scientific] supplemented with a protease inhibitor cocktail (AEBSF, aprotinin, bestatin, E-64, leupeptin and pepstatin A in DMSO with EDTA, Thermo Fisher Scientific). Protein content was measured by a Pierce BCA Assay Kit (Thermo Fisher Scientific). Protein contents of cell lysates (30 μg protein/lane) were resolved by SDS-PAGE. Proteins were then electro-transferred onto PVDF membranes and blots were blocked for one hour at room temperature in 1×TBS with 1% Casein (Bio-Rad Laboratories, Berkeley, Calif.). Blots were then incubated overnight at 4° C. with the desired primary antibody diluted in TBS with 0.5% Tween-20. Blots were then washed with TBS-Tween 20 and probed for 1 hour with the appropriate secondary antibody (1:1000). Protein bands were visualized with chemiluminescence using West Femto maximum detection substrate (Thermo Fisher Scientific). To confirm equal protein loading in each lane, immunoblots were stripped and re-probed for β-actin. Protein fold-induction was calculated by normalizing the intensity of the band of interest to β-actin first, and then to DMSO control lanes.
# HT-29 cells = experiment: as above; type: cell-based, human; conditions: HT-29 (p53 mutant), 24 hours; M2, 6S 10, 20 or 40 μM; 8S, M2′, 10S, M2″ 20 μM
# Procedure: as §3
# in vitro [6] = type: cell-based, human; conditions: human; normal colon cells CCD-18Co, 48 h; read-out: IC50 (cytotoxicity, MTT)
# Procedure: as §1
# in vitro [7] = type: cell-based, human; conditions: human; normal lung cells IMR-90, 48 h; read-out: IC50 (cytotoxicity, MTT)
# Procedure: as §1
# [8] = Chemical inhibition of [6]-shogaol metabolism in liver microsomes; type: in vitro ADME, human; conditions: inhibitor 500 μM, 20 min pre-incubation, [6]-shogaol 50 μM, 30 min
# Procedure: Inhibitors ABT (500 μM) and 18β-GA (500 μM) or DMSO controls were pre-incubated with microsomes in experimental incubation mixture at 37° C. for 20 minutes before initiating the reaction by the addition of [6]-shogaol (50 μM). Reactions were terminated 30 minutes after substrate addition and incubation in a 37° C. water bath by equal volume of ice-cold acetonitrile with 2% acetic acid. The mixture was vortexed and underwent centrifugation at 13,000 g for 10 minutes. Aliquots of supernatant were stored at −20° C. until analysis.
# HCT-116 cells [9] = experiment: TUNEL apoptosis assay (Part 1); type: cell-based, human; conditions: 24 h
# Procedure: (§4) HCT-116 and H-1299 cells were seeded in six-well plates at 1.0×10^5 cells/well and were incubated at 37° C. in a 5% CO2 incubator. After 24 h, fresh media supplemented with DMSO (control), [6]-shogaol (10 or 20 μM), M9 (40 or 80 μM), or M11 (40 or 80 μM) were added to the wells. After 24-h incubation, cells were washed and pretreated for 15 min at room temperature with a solution of 20 μg/ml proteinase K. Cells were then washed twice with PBS pH 7.4 and were fixed for 10 min at room temperature using 10% neutral formaldehyde solution. After two washes in distilled H2O, cells were resuspended in 100 μl of distilled H2O and were applied on silanized microscope slides. Slides were incubated overnight at 37° C. and were washed twice with PBS. Terminal deoxynucleotidyl transferase deoxyuridine triphosphate nick-end labeling (TUNEL) assay was then performed according to the manufacturer's protocol. Cells were observed under 400× power using a Zeiss A1 microscope (Carl Zeiss, Inc., Thornwood, N.Y.).
# (§5) Ten fields per slide were evaluated, and TUNEL-positive cells (with brown coloration in the nucleus) were expressed as a percentage of the total number of cells contained in a field. Statistical Analysis. For simple comparisons between two groups, twotailed Student's t test was used. A p value of less than 0.05 was considered statistically significant in all the tests.
# H-1299 cells [10] = experiment: TUNEL apoptosis assay (Part 1); type: cell-based, human; conditions: 24 h
# Procedure: as §4, §5
# [11] = test system: HCT-116 human colon cancer cells; experiment: MTT growth inhibition of human cancer cells, 24 h (Part 1); type: cell-based; conditions: Homo sapiens; HCT-116, 24 h, 0 to 80 μM
# Procedure: (§6) The reading reflected the number of viable cells and was expressed as a percentage of viable cells in the control. Both HCT-116 and H-1299 cells were cultured in McCoy's 5A medium. All of the above media were supplemented with 10% fetal bovine serum, 1% penicillin/streptomycin, and 1% glutamine, and the cells were kept in a 37° C. incubator with 95% humidity and 5% CO2.
# [12] = test system: H-1299 human lung cancer cells; experiment: as above; type: cell-based; conditions: Homo sapiens, NCI-H1299; H-1299, 24 h, 0 to 80 μM
# Procedure: as §6
# [13] = test system: human colon fibroblast cells CCD-18Co; experiment: in vitro; type: cell-based
# Procedure: as §1
# HCT-116 cells [14] = experiment: TUNEL apoptosis assay (Part 2); type: cell-based, human; conditions: HCT-116, 20 or 40 μM
# Procedure: (§7) HCT-116 and H1299 cells were seeded in 6-well plates at 1×10^5 cells/well and incubated at 37° C. in 5% CO2 incubator. After 24 hours, fresh media supplemented with DMSO (control), [6]-shogaol, M2, M6, or M13 metabolites (20 μM or 40 μM) were added to the wells. After 6 or 24 hours incubation at 37° C. in 5% CO2 incubator, cells were washed and pre-treated for 15 min at room temperature with a solution of 20 μg/ml proteinase K. Cells were then washed twice with phosphate buffer saline pH 7.4 (PBS) and fixed for 10 min at room temperature using 10% neutral formaldehyde solution. After 2 washes in ddH2O, cells were resuspended in 100 μL ddH2O and applied on silanized microscope slides. Slides were incubated overnight at 37° C., and washed twice with PBS. TUNEL assay was then carried out according to the manufacturer's protocol. Cells were observed under 400× power using a Zeiss microscope A1 (Thornwood, N.Y.). 10 fields per slide were evaluated, and TUNEL+ cells (with brown coloration in the nucleus) were expressed as a percentage of the total number of cells contained in a field.
# H-1299 cells [15] = experiment: TUNEL apoptosis assay (Part 2); type: cell-based, human; conditions: H-1299, 20 or 40 μM, 24 hours
# Procedure: as §7
# [16] = test system: human lung fibroblast cells IMR-90; experiment: in vitro; type: cell-based
# Procedure: as §1
smiles,measurement,setting,value
"CCCCCC(CC(O)CCc1ccc(O)c(OC)c1)SCC(NC(C)=O)C(=O)O (centres unmarked) [M4, 5-N-acetylcysteinyl-M6]",activity against cancer cells (MTT),[1],little to no activity
same,activity against cancer cells (MTT),[2],little to no activity
"CCCCCCCC(CC(=O)CCc1ccc(O)c(OC)c1)SC[C@H](N)C(=O)O (some centres unmarked) [M2′, 5-cysteinyl-[8]-shogaol]",IC50,[3],31.2 µM
same,IC50,[4],15.2 µM
same,p53 expression (Western blot),HCT-116 cells [5],increase in p53 accumulation
same,p53 expression (Western blot),HT-29 cells,increase in p53 accumulation
"CCCCCCCC(=O)CCc1ccc(O)c(O)c1 [M8, 1-(3′,4′-dihydroxyphenyl)-decan-3-one]",IC50 at 48 h,in vitro [6],> 100 µM
same,IC50,[2]; Homo sapiens,58.8 µM
same,IC50 at 48 h,in vitro [7],> 100 µM
CC1(C)[C@@H](O)CC[C@]2(C)[C@H]3C(=O)C=C4[C@@H]5C[C@@](C)(C(=O)O)CC[C@]5(C)CC[C@@]4(C)[C@]3(C)CC[C@@H]12 [18β-glycyrrhetinic acid],effect on reductive metabolism of [6]-shogaol,[8],decimated the reductive metabolism
"CCCCCCCC(=O)CCc1ccc(O)c(OC)c1 [M11, 1-(4′-hydroxy-3′-methoxyphenyl)-decan-3-one]",IC50 at 48 h,in vitro [6],> 100 µM
same,IC50,"[1]; Homo sapiens, NCI-H1299",66.5 µM
same,IC50,[2]; Homo sapiens,84 µM
same,apoptotic cells (TUNEL),"HCT-116 cells [9]; HCT-116, 40 μM",12.9%
same,apoptotic cells (TUNEL),"HCT-116 cells [9]; HCT-116, 80 μM",21.1%
same,apoptotic cells (TUNEL),"H-1299 cells [10]; H-1299, 40 μM",8.3%
same,apoptotic cells (TUNEL),"H-1299 cells [10]; H-1299, 80 μM",19.4%
same,IC50 at 48 h,in vitro [7],> 100 µM
same,IC50,[11],84 µM
same,IC50,[12],66.5 µM
"CCCCCC(CC(=O)CCc1ccc(O)c(OC)c1)SC (centres unmarked) [M10, 5-methylthio-1-(4′-hydroxy-3′-methoxyphenyl)-decan-3-one]",IC50 at 48 h,in vitro [6],> 100 µM
same,IC50,"[1]; Homo sapiens, NCI-H1299",60.6 µM
same,IC50,[2]; Homo sapiens,78.2 µM
same,IC50 at 48 h,in vitro [7],> 100 µM
"CCCCCCCCCC(CC(=O)CCc1ccc(O)c(OC)c1)SC[C@H](N)C(=O)O (some centres unmarked) [M2″, 5-cysteinyl-[10]-shogaol]",IC50,[3],28.8 µM
same,IC50,[4],13.3 µM
same,p53 expression (Western blot),HCT-116 cells [5],increase in p53 accumulation
same,p53 expression (Western blot),HT-29 cells,increase in p53 accumulation
"CCCCCC(CC(=O)CCc1ccc(O)c(OC)c1)SC[C@H](NC(=O)CC[C@H](N)C(=O)O)C(=O)NCC(=O)O (some centres unmarked) [M13, 5-glutathiol-[6]-shogaol]",IC50,[13],75.5 µM
same,induction of apoptosis (TUNEL) versus DMSO,HCT-116 cells [14]; 6 hours,higher levels of apoptosis
same,induction of apoptosis (TUNEL) versus DMSO,HCT-116 cells [14]; 24 hours,Apoptosis was observed
same,induction of apoptosis (TUNEL) versus DMSO,H-1299 cells [15],Apoptosis was observed
same,IC50,[1],47.8 µM
same,IC50,[2],45.5 µM
same,IC50,[16],57.5 µM
"CCCCCC(CC(=O)CCc1ccc(O)c(OC)c1)SC[C@H](NC(C)=O)C(=O)O (some centres unmarked) [M5, 5-N-acetylcysteinyl-[6]-shogaol]",IC50,[13],> 100 µM
same,IC50,[1],72.6 µM
same,IC50,[2],54.3 µM
same,IC50,[16],> 100 µM
"CCCCCC(CC(O)CCc1ccc(O)c(OC)c1)SCC(N)C(=O)O (centres unmarked) [M1, 5-cysteinyl-M6]",activity against cancer cells (MTT),[1],little to no activity
same,activity against cancer cells (MTT),[2],little to no activity
"Nn1nnc2ccccc21 [ABT, 1-Aminobenzotriazole]",effect on oxidative metabolism of [6]-shogaol,[8],abrogated
same,effect on reductive metabolism of [6]-shogaol,[8],did not inhibit reductive metabolism
"CCCCCC(CC(O)CCc1ccc(O)c(OC)c1)SC (centres unmarked) [M12, 5-methylthio-1-(4′-Hydroxy-3′-methoxyphenyl)-decan-3-ol]",IC50 at 48 h,in vitro [6],> 100 µM
same,IC50,"[1]; Homo sapiens, NCI-H1299",69.9 µM
same,IC50 at 48 h,in vitro [7],> 100 µM
"CCCCCCCC(O)CCc1ccc(O)c(OC)c1 (centres unmarked) [M9, 1-(4′-hydroxy-3′-methoxyphenyl)-decan-3-ol]",IC50 at 48 h,in vitro [6],> 100 µM
same,IC50,"[1]; Homo sapiens, NCI-H1299",82.5 µM
same,IC50,[2]; Homo sapiens,82.2 µM
same,apoptotic cells (TUNEL),"HCT-116 cells [9]; HCT-116, 40 μM",9.6%
same,apoptotic cells (TUNEL),"HCT-116 cells [9]; HCT-116, 80 μM",16.9%
same,apoptotic cells (TUNEL),"H-1299 cells [10]; H-1299, 40 μM",7.4%
same,apoptotic cells (TUNEL),"H-1299 cells [10]; H-1299, 80 μM",15.4%
same,IC50 at 48 h,in vitro [7],> 100 µM
same,IC50,[11],82.2 µM
same,IC50,[12],77.7 µM
